The values below come from US20240376090A1, “ISOXAZOLE DERIVATIVES AS MODULATORS OF THE 5-HT2A SEROTONIN RECEPTOR USEFUL FOR THE TREATMENT OF DISORDERED RELATED THERETO” (Arena Pharmaceuticals, Inc., priority 2020, published 2024).

The structures appear in SMILES notation.

In this assay the target is 5-HT2A receptor (Homo sapiens (Human), UniProt P28223). In words: Radioligand binding assay ([3H]5-HT competition), 5-HT2A. Particulars: [3H]5-HT radioligand, membranes of HEK293 cells expressing recombinant 5-HT2A; Ki from IC50 by Cheng-Prusoff; read-out: 5-HT2A serotonin binding Ki value. The protocol: Competition binding experiments consisted of addition of 5 μL of serially diluted test compound, 50 μL of radioligand stock diluted in Assay Buffer (20 mM HEPES, pH 7.4, 10 mM MgCl2), and 145 μL of diluted membrane expressing the receptor of interest to 96-well microtiter plates, which were then incubated for one hour at room temperature. Assay incubations were terminated by rapid filtration through Perkin Elmer GF/C filtration plates under vacuum pressure using a 96-well Packard filtration apparatus, followed by washing the filter plates several times with ice cold Assay Buffer. Plates were then dried at 45° C. for a minimum of four hours. Finally, 25 μL of BetaScint scintillation cocktail was added to each well and the plates were counted in a Packard TopCount scintillation counter. In each competition study, test compounds were assayed at 10 concentrations with three replicates at each test concentration. Dose-response curves were constructed to determine IC50 values and these were converted to corresponding Ki values using the Cheng-Prusoff equation.
5-HT2A receptor, sequence (P28223 whole entry): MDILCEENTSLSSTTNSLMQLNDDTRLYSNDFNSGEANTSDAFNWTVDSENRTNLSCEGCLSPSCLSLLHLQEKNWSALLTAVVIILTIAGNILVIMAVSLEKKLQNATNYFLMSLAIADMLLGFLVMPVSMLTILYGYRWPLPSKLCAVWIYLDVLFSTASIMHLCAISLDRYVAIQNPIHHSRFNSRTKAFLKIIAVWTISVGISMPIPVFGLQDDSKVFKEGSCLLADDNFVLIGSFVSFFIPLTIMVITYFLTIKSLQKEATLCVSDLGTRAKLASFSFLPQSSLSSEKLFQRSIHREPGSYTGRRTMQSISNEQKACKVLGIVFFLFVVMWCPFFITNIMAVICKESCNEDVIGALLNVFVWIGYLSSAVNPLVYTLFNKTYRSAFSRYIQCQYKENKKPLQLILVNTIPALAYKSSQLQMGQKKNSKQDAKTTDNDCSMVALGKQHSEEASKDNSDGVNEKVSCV
The term Ki denotes a dissociation constant, usually derived from enzyme kinetics or from competition with a known ligand. On to `Cc1noc(C)c1-c1cc(NC(=O)C2CC2C2CC2)ccc1OCCN1CCCC1` (stereo not drawn) [Compound 100, N-(3-(3,5-dimethylisoxazol-4-yl)-4-(2-(pyrrolidin-1-yl)ethoxy)phenyl)-[1,1′-bi(cyclopropane)]-2-carboxamide], for which the inhibition constant (Ki) amounted to 2.89 nM. Under `CCOCCC(=O)Nc1ccc(OCCN2CCCC2)c(-c2c(C)noc2C)c1` [Compound 101, N-(3-(3,5-dimethylisoxazol-4-yl)-4-(2-(pyrrolidin-1-yl)ethoxy)phenyl)-3-ethoxypropanamide] stands 78.3 nM. With `Cc1noc(C)c1-c1cc(NC(=O)c2ccncc2)ccc1OCCN1CCCC1` [Compound 102, N-(3-(3,5-dimethylisoxazol-4-yl)-4-(2-(pyrrolidin-1-yl)ethoxy)phenyl)isonicotinamide] the figure was 119 nM; with `Cc1noc(C)c1-c1cc(NC(=O)c2ccncc2F)ccc1OCCN1CCCC1` [Compound 103, N-(3-(3,5-dimethylisoxazol-4-yl)-4-(2-(pyrrolidin-1-yl)ethoxy)phenyl)-3-fluoroisonicotinamide], 50.8 nM; with `Cc1noc(C)c1-c1cc(NC(=O)c2cc(F)ccn2)ccc1OCCN1CCCC1` [Compound 104, N-(3-(3,5-dimethylisoxazol-4-yl)-4-(2-(pyrrolidin-1-yl)ethoxy)phenyl)-4-fluoropicolinamide], 19.6 nM. With `Cc1noc(C)c1-c1cc(NC(=O)c2cc(Cl)ccn2)ccc1OCCN1CCCC1` [Compound 105, 4-chloro-N-(3-(3,5-dimethylisoxazol-4-yl)-4-(2-(pyrrolidin-1-yl)ethoxy)phenyl)picolinamide] the figure was 3.94 nM. Turning to `Cc1noc(C)c1-c1cc(NC(=O)[C@@H]2C[C@H]2F)ccc1OCCN1CCCC1` [Compound 106, (1S,2R)—N-[3-(3,5-dimethylisoxazol-4-yl)-4-(2-pyrrolidin-1-ylethoxy)phenyl]-2-fluoro-cyclopropanecarboxamide], the Ki is 1.13 nM. As to `Cc1noc(C)c1-c1cc(NC(=O)[C@H]2C[C@H]2F)ccc1OCCN1CCCC1` [Compound 107, (1R,2R)—N-(3-(3,5-dimethylisoxazol-4-yl)-4-(2-(pyrrolidin-1-yl)ethoxy)phenyl)-2-fluorocyclopropane-1-carboxamide], the Ki was found to be 15.1 nM. Under `Cc1noc(C)c1-c1cc(NC(=O)[C@@H]2C[C@@H]2F)ccc1OCCN1CCCC1` [Compound 108, (1S,2S)—N-(3-(3,5-dimethylisoxazol-4-yl)-4-(2-(pyrrolidin-1-yl)ethoxy)phenyl)-2-fluorocyclopropane-1-carboxamide] stands 6.21 nM; under `Cc1ncsc1C(=O)Nc1ccc(OCCN2CCCC2)c(-c2c(C)noc2C)c1` [Compound 109, N-(3-(3,5-dimethylisoxazol-4-yl)-4-(2-(pyrrolidin-1-yl)ethoxy)phenyl)-4-methylthiazole-5-carboxamide], 3.78 nM.

Consider `Cc1nc(C)c(C(=O)Nc2ccc(OCCN3CCCC3)c(-c3c(C)noc3C)c2)s1` [Compound 110, N-(3-(3,5-dimethylisoxazol-4-yl)-4-(2-(pyrrolidin-1-yl)ethoxy)phenyl)-2,4-dimethylthiazole-5-carboxamide], for which the Ki stood at 110 nM. Under `Cc1cnoc1C(=O)Nc1ccc(OCCN2CCCC2)c(-c2c(C)noc2C)c1` [Compound 111, N-(3-(3,5-dimethylisoxazol-4-yl)-4-(2-(pyrrolidin-1-yl)ethoxy)phenyl)-4-methylisoxazole-5-carboxamide] stands 23.8 nM. With `Cc1ncoc1C(=O)Nc1ccc(OCCN2CCCC2)c(-c2c(C)noc2C)c1` [Compound 112, N-(3-(3,5-dimethylisoxazol-4-yl)-4-(2-(pyrrolidin-1-yl)ethoxy)phenyl)-4-methyloxazole-5-carboxamide], the inhibition constant Ki was determined as 14.1 nM. `CCOC1CC1C(=O)Nc1ccc(OCCN2CCCC2)c(-c2c(C)noc2C)c1` (stereo not drawn) [Compound 115, N-(3-(3,5-dimethylisoxazol-4-yl)-4-(2-(pyrrolidin-1-yl)ethoxy)phenyl)-2-ethoxycyclopropane-1-carboxamide]: the Ki worked out at 8.52 nM. With `Cc1noc(C)c1-c1cc(NC(=O)c2ccnn2C)ccc1OCCN1CCCC1` [Compound 116, N-[3-(3,5-dimethylisoxazol-4-yl)-4-(2-pyrrolidin-1-ylethoxy)phenyl]-2-methyl-pyrazole-3-carboxamide] the figure was 6.15 nM; with `Cc1noc(C)c1-c1cc(NC(=O)c2ccnn2C)ccc1OCCN1CCC1` [Compound 118, N-(4-(2-(azetidin-1-yl)ethoxy)-3-(3,5-dimethylisoxazol-4-yl)phenyl)-1-methyl-1H-pyrazole-5-carboxamide], 18.9 nM. For the compound `Cc1noc(C)c1-c1cc(NC(=O)c2ccccc2)ccc1OCCN1CCC1` [Compound 120, N-(4-(2-(azetidin-1-yl)ethoxy)-3-(3,5-dimethylisoxazol-4-yl)phenyl)benzamide], the inhibition constant Ki is 9.41 nM. With `Cc1noc(C)c1-c1cc(NC(=O)Cc2ccccc2)ccc1OCCN1CCC1` [Compound 123, N-(4-(2-(azetidin-1-yl)ethoxy)-3-(3,5-dimethylisoxazol-4-yl)phenyl)-2-phenylacetamide], the inhibition constant (Ki) came out at 11.8 nM. With `COc1cccc(CC(=O)Nc2ccc(OCCN3CCC3)c(-c3c(C)noc3C)c2)c1` [Compound 124, N-(4-(2-(azetidin-1-yl)ethoxy)-3-(3,5-dimethylisoxazol-4-yl)phenyl)-2-(3-methoxyphenyl)acetamide] the figure was 10.6 nM; with `COc1ccc(CC(=O)Nc2ccc(OCCN3CCC3)c(-c3c(C)noc3C)c2)cc1` [Compound 126, N-(4-(2-(azetidin-1-yl)ethoxy)-3-(3,5-dimethylisoxazol-4-yl)phenyl)-2-(4-methoxyphenyl) acetamide], 5.28 nM; with `Cc1ncsc1CC(=O)Nc1ccc(OCCN2CCC2)c(-c2c(C)noc2C)c1` [Compound 127, N-(4-(2-(azetidin-1-yl)ethoxy)-3-(3,5-dimethylisoxazol-4-yl)phenyl)-2-(4-methylthiazol-5-yl)acetamide], 8.51 nM. On to `Cc1noc(C)c1-c1cc(NC(=O)Cc2cncc(F)c2)ccc1OCCN1CCC1` [Compound 128, N-(4-(2-(azetidin-1-yl)ethoxy)-3-(3,5-dimethylisoxazol-4-yl)phenyl)-2-(5-fluoropyridin-3-yl)acetamide], for which the Ki was 14.6 nM. With `Cc1noc(C)c1-c1cc(NC(=O)c2c(F)cnn2C)ccc1OCCN1CCC1` [Compound 130, N-(4-(2-(azetidin-1-yl)ethoxy)-3-(3,5-dimethylisoxazol-4-yl)phenyl)-4-fluoro-1-methyl-1H-pyrazole-5-carboxamide] the figure was 12.8 nM. Under `CCOC1CC1C(=O)Nc1ccc(OCCN2CCC2)c(-c2c(C)noc2C)c1` (stereo not drawn) [Compound 131, N-(4-(2-(azetidin-1-yl)ethoxy)-3-(3,5-dimethylisoxazol-4-yl)phenyl)-2-ethoxycyclopropane-1-carboxamide] stands 77.7 nM; under `Cc1noc(C)c1-c1cc(NC(=O)C2CC2)ccc1OC1CN(C)C1` [Compound 132, N-[3-(3,5-dimethylisoxazol-4-yl)-4-(1-methylazetidin-3-yl)oxy-phenyl]cyclopropanecarboxamide], 46.1 nM; under `CCN1CC(Oc2ccc(NC(=O)C3CC3)cc2-c2c(C)noc2C)C1` [Compound 133, N-(3-(3,5-dimethylisoxazol-4-yl)-4-((1-ethylazetidin-3-yl)oxy)phenyl)cyclopropanecarboxamide], 51.3 nM.

In the case of `Cc1noc(C)c1-c1cc(NC(=O)c2c(F)cnn2C)ccc1OCCN1CCOCC1` [Compound 134, N-[3-(3,5-dimethylisoxazol-4-yl)-4-(2-morpholinoethoxy)phenyl]-4-fluoro-2-methyl-pyrazole-3-carboxamide], the inhibition constant (Ki) was found to be 5.86 nM. With `CCOC1CC1C(=O)Nc1ccc(OCCN2CCOCC2)c(-c2c(C)noc2C)c1` (stereo not drawn) [Compound 135, N-[3-(3,5-dimethylisoxazol-4-yl)-4-(2-morpholinoethoxy)phenyl]-2-ethoxy-cyclopropanecarboxamide] the figure was 20.1 nM.

With `Cc1noc(C)c1-c1cc(NC(=O)C2CC2)ccc1OCCN1CCOC(=O)CC1` [Compound 137, N-[3-(3,5-dimethylisoxazol-4-yl)-4-[2-(7-oxo-1,4-oxazepan-4-yl)ethoxy]phenyl]cyclopropanecarboxamide], the inhibitory constant (Ki) was found to be 551 nM. On to `Cc1noc(C)c1-c1cc(NC(=O)C2CC2)ccc1OCCN1CCN2C(=O)CCC2C1` (stereo not drawn) [Compound 138, N-(3-(3,5-dimethylisoxazol-4-yl)-4-(2-(6-oxohexahydropyrrolo[1,2-a]pyrazin-2(1H)-yl)ethoxy)phenyl)cyclopropanecarboxamide], for which the Ki stood at 24.6 nM. In the case of `Cc1noc(C)c1-c1cc(NC(=O)C2CC2)ccc1OCCN1CCC2(CC1)CNC2=O` [Compound 139, N-(3-(3,5-dimethylisoxazol-4-yl)-4-(2-(1-oxo-2,7-diazaspiro[3.5]nonan-7-yl)ethoxy)phenyl)cyclopropanecarboxamide], the Ki amounted to 124 nM. With `Cc1noc(C)c1-c1cc(NC(=O)C2CC2)ccc1OCCN1CCC2(CC1)CC(=O)N2` [Compound 140, N-(3-(3,5-dimethylisoxazol-4-yl)-4-(2-(2-oxo-1,7-diazaspiro[3.5]nonan-7-yl)ethoxy)phenyl)cyclopropanecarboxamide] the figure was 228 nM. Regarding `Cc1noc(C)c1-c1cc(NC(=O)C2CC2)ccc1OCCN1CCC2(CCOC2=O)CC1` [Compound 142, N-(3-(3,5-dimethylisoxazol-4-yl)-4-(2-(1-oxo-2-oxa-8-azaspiro[4.5]decan-8-yl)ethoxy)phenyl)cyclopropanecarboxamide], the Ki was 67.4 nM.
